Results reported in patent publication US5843940A, “Benzothiophene compounds, compositions, and method” (Eli Lilly and Company, priority 1997, dated 1998).
Where a name gives a salt, the structure may show the parent alone.

Experiments:
[1] = test system: Uterine Eosinophil Peroxidase; test: Uterine Eosinophil Peroxidase (EPO) Assay; assay type: in vivo, female Sprague Dawley rats; settings: for Uterine Eosinophil (Vmax), Eosinophil peroxidase Vmax: daily for 4 days, 5 to 6 rats, * p < .05
Text: (§1) Seventy-five day old female Sprague Dawley rats (weight range of 200 to 225 g) were obtained from Charles River Laboratories (Portage, Mich.). The animals were either bilaterally ovariectomized (OVX) or exposed to a Sham surgical procedure at Charles River Laboratories, and then shipped after one week. Upon arrival, they were housed in metal hanging cages in groups of 3 or 4 per cage and had ad libitum access to food (calcium content approximately 0.5%) and water for one week. Room temperature was maintained at 22.2°±1.7° C. with a minimum relative humidity of 40%. The photoperiod in the room was 12 hours light and 12 hours dark.
(§2) Dosing Regimen Tissue Collection. After a one week acclimation period (therefore, two weeks post-OVX) daily dosing with test compound was initiated. 17α-ethynyl estradiol or the test compound were given orally, unless otherwise stated, as a suspension in 1% carboxymethylcellulose or dissolved in 20% cyclodextrin. Animals were dosed daily for 4 days. Following the dosing regimen, animals were weighed and anesthetized with a ketamine:xylazine (2:1, V:V) mixture and a blood sample was collected by cardiac puncture. The animals were then sacrificed by asphyxiation with CO2, the uterus was removed through a midline incision, and a wet uterine weight was determined.
Uterine Eosinophil Peroxidase (EPO) Assay. Uteri were kept at 4° C. until time of enzymatic analysis. The uteri were then homogenized in 50 volumes of 50 mM Tris buffer (pH-8.0) containing 0.005% Triton X-100. Upon addition of 0.01% hydrogen peroxide and 10 mM O-phenylenediamine (final concentrations) in Tris buffer, increase in absorbance was monitored for one minute at 450 nm. The presence of eosonophils in the uterus is an indication of estrogenic activity of a compound. The maximal velocity of a 15 second interval was determined over the initial, linear portion of the reaction curve.
(§3) The data presented in Table 1 below reflects the response of 5 to 6 rats per treatment.

[2] = test system: uterus of ovariectomized rats; test: Uterine weight in ovariectomized rats; assay type: in vivo, female Sprague Dawley rats; settings: for Uterine Weight % Inc (increase versus the ovariectomized controls): daily for 4 days, 5 to 6 rats, * p < .05
Text: as §1, §2, §3

Serum cholesterol = Serum cholesterol analysis in ovariectomized rats; assay type: in vivo, female Sprague Dawley rats; settings: for Serum Cholest. % Dec. (decrease versus ovariectomized controls): daily for 4 days, 5 to 6 rats, * p < .05
Text: as §1, §2
Cholesterol Analysis. Blood samples were allowed to clot at room temperature for 2 hours, and serum was obtained following centrifugation for 10 minutes at 3000 rpm. Serum cholesterol was determined using a Boehringer Mannheim Diagnostics high performance cholesterol assay. Briefly the cholesterol was oxidized to cholest-4-en-3-one and hydrogen peroxide. The hydrogen peroxide was then reacted with phenol and 4-aminophenazone in the presence of peroxidase to produce a p-quinone imine dye, which was read spectrophotemetrically at 500 nm. Cholesterol concentration was then calculated against a standard curve.
as §3

[3] = test system: MCF-7 breast adenocarcinoma cells; test: MCF-7 Proliferation Assay (estrogen dependent breast cancer); assay type: cell-based; settings: Homo sapiens, MCF7, versus control (DMSO), tritiated thymidine
Experimental: MCF-7 breast adenocarcinoma cells (ATCC HTB 22) are maintained in MEM (minimal essential medium, phenol-red free, Sigma St.Louis Mo.) supplimented with 10% fetal bovine serum (FBS) (v/v), L-glutamine (2 mM), sodium pyruvate (1 mM), HEPES (10 mM), non-essential amino acids and bovine insulin (1 ug/mL). Ten days prior to the assay, the MCF-7 cells are switched to maintenance medium supplemented with 10% dextrancoated charcoal stripped fetal bovine serum (DCC-FBS) assay medium in place of the 10% FBS to deplete internal stores of estrogen. MCF-7 cells are removed from the maintenance flasks using a cell dissociating medium (Ca/Mg free HBSS (phenol-red free) supplemented with 10 mM HEPES and 2 mM EDTA. Cells are washed twice with the assay medium and adjusted to 80,000 cells/mL. Approximately […] (8,000 cells) are added to a flat-bottomed microculture well (Costar 3596) and incubated at […] in a 5% CO2 humidified incubator for 48 hours to allow cell adherence and equilibrium after transfer. Serial dilutions of the compounds of formula I or DMSO as a diluent control are prepared in assay medium and […] to triplicate microcultures followed by […] for a final volume of […]. After an additional 48 hours of incubation, the microcultures are pulsed with tritiated thymidine ([…]) for 4 hours. Culture are terminated by freezing at -70° C. for 24 hours followed by thawing and harvesting of microcultures using a Skatron Semiautomatic Cell Harvester. Samples are counted by liquid scintillation. Fifty percent inhibitory concentration of the test drugs (IC50) are determined versus the control (DMSO).

[4] = test system: femur density of ovariectomized rats; test: Osteoporosis test, bone density in ovariectomized rats; assay type: in vivo; settings: orally administered, 35 days, in 20% hydroxypropyl β-cyclodextrin
Experimental: Following the General Preparation Procedure, infra, the rats are treated daily for 35 days (6 rats per treatment group) and sacrificed by carbon dioxide asphyxiation on the 36th day. The 35 day time period is sufficient to allow maximal reduction in bone density, measured as described herein. At the time of sacrifice, the uteri are removed, dissected free of extraneous tissue, and the fluid contents are expelled before determination of wet weight in order to confirm estrogen deficiency associated with complete ovariectomy. […] The uteri are then placed in 10% neutral buffered formalin to allow for subsequent histological analysis. The right femurs are excised and digitilized x-rays generated and analyzed by an image analysis program (NIH image) at the distal metaphysis. The proximal aspect of the tibiae from these animals are also scanned by quantitative computed tomography. In accordance with the above procedures, compounds of the instant invention and ethynyl estradiol (EE2) in 20% hydroxypropyl β-cyclodextrin are orally administered to test animals. Distal femur metaphysis and proximal tibiae data are compared to intact and ovariectomized test animals. Results are reported as percent protection relative to ovariectomy.

## COc1ccc(-c2sc3cc(OC)ccc3c2-c2cccc(OCCCN3CCCCC3)c2)cc1.Cl [Example 2, 2-(4-Methoxyphenyl)-3-[3-[3-(1-piperidinyl)propoxy]phenyl]-6-methoxybenzo[b]thiophene hydrochloride]
[1]; 0.1 mg/kg PO
  Uterine Eosinophil (Vmax), Eosinophil peroxidase Vmax: 24.0
[1]; 1.0 mg/kg PO
  Uterine Eosinophil (Vmax), Eosinophil peroxidase Vmax: 32.4
[1]; 10.0 mg/kg PO
  Uterine Eosinophil (Vmax), Eosinophil peroxidase Vmax: 32.1
[2]; 0.1 mg/kg PO
  Uterine Weight % Inc (increase versus the ovariectomized controls): 20.2%
[2]; 1.0 mg/kg PO
  Uterine Weight % Inc (increase versus the ovariectomized controls): 35.7%
[2]; 10.0 mg/kg PO
  Uterine Weight % Inc (increase versus the ovariectomized controls): 39.1%
Serum cholesterol; 0.1 mg/kg PO
  Serum Cholest. % Dec. (decrease versus ovariectomized controls): 59.1%
Serum cholesterol; 1.0 mg/kg PO
  Serum Cholest. % Dec. (decrease versus ovariectomized controls): 76.5%
Serum cholesterol; 10.0 mg/kg PO
  Serum Cholest. % Dec. (decrease versus ovariectomized controls): 69.4%

## COc1ccc(-c2sc3cc(OC)ccc3c2-c2cccc(OCCN3CCCCC3)c2)cc1.Cl [Example 1, 2-(4-Methoxyphenyl)-3-[3-[2-(1-piperidinyl)ethoxy]phenyl]-6-methoxybenzo[b]thiophene hydrochloride]
[1]; 0.1 mg/kg PO
  Uterine Eosinophil (Vmax), Eosinophil peroxidase Vmax: 7.5
[1]; 1.0 mg/kg PO
  Uterine Eosinophil (Vmax), Eosinophil peroxidase Vmax: 22.2
[1]; 10.0 mg/kg PO
  Uterine Eosinophil (Vmax), Eosinophil peroxidase Vmax: 103.5
[2]; 0.1 mg/kg PO
  Uterine Weight % Inc (increase versus the ovariectomized controls): 24%
[2]; 1.0 mg/kg PO
  Uterine Weight % Inc (increase versus the ovariectomized controls): 37.2%
[2]; 10.0 mg/kg PO
  Uterine Weight % Inc (increase versus the ovariectomized controls): 68.2%
Serum cholesterol; 0.1 mg/kg PO
  Serum Cholest. % Dec. (decrease versus ovariectomized controls): 25.8%
Serum cholesterol; 1.0 mg/kg PO
  Serum Cholest. % Dec. (decrease versus ovariectomized controls): 56.1%
Serum cholesterol; 10.0 mg/kg PO
  Serum Cholest. % Dec. (decrease versus ovariectomized controls): 71.1%

## COc1ccc(-c2sc3cc(OC)ccc3c2-c2cccc(OCCCCN3CCCCC3)c2)cc1.Cl [Example 3, 2-(4-Methoxyphenyl)-3-[3-[4-(1-piperidinyl)butoxy]phenyl]-6-methoxybenzo[b]thiophene hydrochloride]
[1]; 0.1 mg/kg PO
  Uterine Eosinophil (Vmax), Eosinophil peroxidase Vmax: 4.8
[1]; 1.0 mg/kg PO
  Uterine Eosinophil (Vmax), Eosinophil peroxidase Vmax: 43.5
[1]; 10.0 mg/kg PO
  Uterine Eosinophil (Vmax), Eosinophil peroxidase Vmax: -91.2
[2]; 0.1 mg/kg PO
  Uterine Weight % Inc (increase versus the ovariectomized controls): 23.9%
[2]; 1.0 mg/kg PO
  Uterine Weight % Inc (increase versus the ovariectomized controls): 62.1%
[2]; 10.0 mg/kg PO
  Uterine Weight % Inc (increase versus the ovariectomized controls): 65.0%
Serum cholesterol; 0.1 mg/kg PO
  Serum Cholest. % Dec. (decrease versus ovariectomized controls): 35.5%
Serum cholesterol; 1.0 mg/kg PO
  Serum Cholest. % Dec. (decrease versus ovariectomized controls): 64.4%
Serum cholesterol; 10.0 mg/kg PO
  Serum Cholest. % Dec. (decrease versus ovariectomized controls): 78.0%

## Oc1ccc(-c2sc3cc(O)ccc3c2-c2cccc(OCCN3CCCCC3)c2)cc1 [Example 4, 2-(4--Hydroxyphenyl)-3-[3-[2-(1-piperidinyl)ethoxy]phenyl]-6-hydroxybenzo[b]thiophene hydrochloride]
[1]; 0.1 mg/kg PO
  Uterine Eosinophil (Vmax), Eosinophil peroxidase Vmax: 4.8
[1]; 1.0 mg/kg PO
  Uterine Eosinophil (Vmax), Eosinophil peroxidase Vmax: 4.8
[1]; 10.0 mg/kg PO
  Uterine Eosinophil (Vmax), Eosinophil peroxidase Vmax: 103.8
[3]
  IC50: 8 nM
[2]; 0.1 mg/kg PO
  Uterine Weight % Inc (increase versus the ovariectomized controls): 9.1%
[2]; 1.0 mg/kg PO
  Uterine Weight % Inc (increase versus the ovariectomized controls): 5.6%
[2]; 10.0 mg/kg PO
  Uterine Weight % Inc (increase versus the ovariectomized controls): 78.7%
Serum cholesterol; 0.1 mg/kg PO
  Serum Cholest. % Dec. (decrease versus ovariectomized controls): 33.3%
Serum cholesterol; 1.0 mg/kg PO
  Serum Cholest. % Dec. (decrease versus ovariectomized controls): 57.2%
Serum cholesterol; 10.0 mg/kg PO
  Serum Cholest. % Dec. (decrease versus ovariectomized controls): 81.0%

## Oc1ccc(-c2sc3cc(O)ccc3c2-c2ccc(OCCN3CCCCC3)cc2)cc1 [Compound A, reference compound]
[1]; 0.1 mg/kg PO
  Uterine Eosinophil (Vmax), Eosinophil peroxidase Vmax: 21.0
[1]; 1.0 mg/kg PO
  Uterine Eosinophil (Vmax), Eosinophil peroxidase Vmax: 49.9
[1]; 10.0 mg/kg PO
  Uterine Eosinophil (Vmax), Eosinophil peroxidase Vmax: 55.9
[2]; 0.1 mg/kg PO
  Uterine Weight % Inc (increase versus the ovariectomized controls): 24.6%
[2]; 1.0 mg/kg PO
  Uterine Weight % Inc (increase versus the ovariectomized controls): 64.8%
[2]; 10.0 mg/kg PO
  Uterine Weight % Inc (increase versus the ovariectomized controls): 41.7%
Serum cholesterol; 0.1 mg/kg PO
  Serum Cholest. % Dec. (decrease versus ovariectomized controls): 45.4%
Serum cholesterol; 1.0 mg/kg PO
  Serum Cholest. % Dec. (decrease versus ovariectomized controls): 68.8%
Serum cholesterol; 10.0 mg/kg PO
  Serum Cholest. % Dec. (decrease versus ovariectomized controls): 65.3%

## Oc1ccc(-c2sc3cc(O)ccc3c2-c2cccc(OCCCCN3CCCCC3)c2)cc1 [Example 6, 2-(4--Hydroxyphenyl)-3-[3-(1-piperidinyl)butoxy]phenyl]-6-hydroxybenzo[b]thiophene hydrochloride]
[3]
  IC50: 2 nM

## Oc1ccc(-c2sc3cc(O)ccc3c2-c2cccc(OCCCN3CCCCC3)c2)cc1 [Example 5]
[3]
  IC50: 0.2 nM

## C#C[C@]1(O)CC[C@H]2[C@@H]3CCc4cc(O)ccc4[C@H]3CC[C@@]21C [EE2, 17α-ethynyl estradiol, reference compound]
[1]; 0.1 mg/kg PO
  Uterine Eosinophil (Vmax), Eosinophil peroxidase Vmax: 234.2
[1]; stromal layer of ovariectomized rats
  eosinophil infiltration into the uterus (in words): substantial, expected increase in eosinophil infiltration
[4]
  loss of femur density after ovariectomy: prevents this loss
[2]; 0.1 mg/kg PO
  Uterine Weight % Inc (increase versus the ovariectomized controls): 118.6%
[2]; EE2 orally at 0.1 mg/kg/day, versus ovariectomized test animals
  uterine weight (in words): substantially greater than the uterine weight of ovariectomized test animals
Serum cholesterol; 0.1 mg/kg PO
  Serum Cholest. % Dec. (decrease versus ovariectomized controls): 89.3%
Serum cholesterol; EE2 orally at 0.1 mg/kg/day
  serum cholesterol (in words): caused a decrease in serum cholesterol
